Measurements published in US6207648A, “Methods of using cytochrome P450 reductase for the enhancement of P450-based anti-cancer gene therapy” (priority 1998, dated 2001).
“Also recorded” adds a separate entry of the source. Read-outs that look alike come from different tables or passages of the source.

What was measured:
[1] = tested on: 9L gliosarcoma cells (parental, CYP2B1+, CYP2B1+ RED+++); test: In vitro growth inhibition assay, XTT (Example 1); conditions: for increase of cell survival ratio in CYP2B1+ RED+++ cells / rescue of CYP2B1+ and CYP2B1+ RED+++ cells from CPA toxicity: 1 mM CPA, AADP 0.5 mM or DPI 5 μM; for rescue of CYP2B1+ and CYP2B1+ RED+++ cells from CPA toxicity: FIG. 4
Description: Cells (1000/well) seeded in 96-well plates were treated with the indicated concentrations of CPA for 4 days. Corresponding controls received no drug treatment. Cell survival was determined by an XTT calorimetric assay. Data (mean for triplicate samples) were expressed as growth ratio (%), i. e., cell number (XTT activity) in drug treated plates as a percentage of the corresponding drug-free controls.
Cells (500/well) seeded in 96-well plates were treated with 1 mM cyclophosphamide in the absence or presence of the RED inhibitors AADP (0.5 mM) or DPI (5 μM). Corresponding controls received no drug treatment. Cell survival was determined by an XTT colorimetric assay. Data (mean for triplicate samples) are expressed as growth ratio (%), i.e., cell number (XTT activity) in drug treated plates as a percentage of the corresponding drug-free controls and are representative of 2-3 independent experiments. AADP and DPI were added to the cells 30 minutes prior to CPA treatment.
(B) Growth inhibition assay--Cells (1000/well) seeded in 96 well plates were treated with the indicated concentrations of CPA for 4-5 days. Corresponding controls received no drug treatment. Cell survival was determined by an XTT colorimetric assay, a cell proliferation assay that measures mitochondrial dehydrogenase activity of viable cells (Scudiero, D. A., et al., Cancer Res. 48:4827-4833 (1988)).

[2] = tested on: 9L, 9L/2B1 and 9L/2B1/RED cells; test: Adriamycin growth inhibition assay; format: cell-based, rat
Description: The indicated 9L, 9L/2B1 and 9L/2B1/RED clonal cell lines, described in Example 1, were treated with Adriamycin for 2 days at the indicated drug concentrations. Cytotoxicity was measured after 5 days continuous culture using a growth inhibition assay, as described under FIG. 2B of Example 1. […] Data shown are averages of duplicates.
(§1) Corresponding controls received no drug treatment.
9L gliosarcoma cell lines stably expressing rat P450 2B1 and rat RED: The following rat 9L gliosarcoma transfectants were those already described in Example 1: P3 and P17, which stably express P450 gene CYP2B1; 9L-lacZ, which stably expresses the E. coli β-galactosidase gene; R26, which stably expresses rat RED but not P450; and PR1, PR7, PR11, which stably express rat P450 2B1 and rat RED.

[3] = in vivo; cited from earlier work
[4] = tested on: 9L/pBabe bystander cells; test: Bystander cytotoxicity/co-culture with cell culture inserts; format: cell-based, rat; conditions: Rattus norvegicus, 96 h, 9L/2B6/reductase, 0.67 mM
Description: FIGS. 18A and 18B are graphs depicting the bystander cytotoxicity of 9L/2B6/reductase and 9L/2B6 cells. In FIG. 18A, bystander cytotoxicity of 9L/2B6/reductase cells is compared to that of 9L/2B6 cells. In both cases, 9L/pBabe served as the bystander cells. 9L/pBabe cells were plated in duplicate at 10^5 cells/well of a 6-well plate (lower chamber). 9L/2B6/reductase cells or 9L/2B6 cells were plated in 25 mm cell culture inserts (upper chamber) at concentrations ranging from 10^4 to 6×10^5 cells, corresponding to ratios of 0.1 to 6 relative to the bystander 9L/pBabe cells growing in the lower chamber, as shown on the x-axis. Cells were incubated in a total volume of 3 ml Dulbecco's minimal essential medium (DMEM), 10% FBS, containing 1 mM CPA, final CPA concentration.
The experimental design was the same as in FIG. 18A, except that the final drug concentration was 0.67 mM. Data shown for both panels correspond to the survival of 9L/pBabe bystander cells in the lower chamber.
Bystander cytotoxicity/co-culture experiments: 9L/pBabe cells were plated in duplicate at 10^5 cells/well in the lower chamber of a 6-well Falcon co-culture plate (30 mm diameter wells) (Falcon 3046). 9L/2B6/reductase cells were plated in 25 mm cell culture inserts (0.4 μm pore size; Falcon 3090), at dilutions ranging from 0. 1 to 6 times the number of 9L/pBabe cells plated in the lower chamber. […] Relative cell numbers were quantitated 4 days later by crystal violet staining.

[5] = tested on: 9L gliosarcoma cells (parental, CYP2B1+, CYP2B1+ RED+++); test: In vitro colony formation cytotoxicity assay (Example 1); format: cell-based, rat; conditions: FIG. 3A
Excerpt: FIGS. 2A and 2C depict the results of a colony formation cytotoxicity assay.
FIG. 3A depicts results from a colony formation cytotoxicity assay. […] The survival fraction is expressed as the number of colonies in each treatment group compared to the untreated control.
as §1

[6] = tested on: rodent and human tumor xenograft models; conditions: cited from earlier work
[7] = tested on: 9L/pBabe, 9L/2B6, 9L/hRED and 9L/2B6/hRED gliosarcoma cells
Description: Cells were seeded at 4000 cells/well in 48-well plates and treated with increasing concentrations of CPA for 4 days. Cell growth in comparison to drug-free controls was determined by crystal violet staining and is presented as mean±SD for n=3 replicates.
FIG. 21 is a graph depicting the cytotoxic effects of the bioreductive drug TPZ toward 9L/pBabe control cells and 9L cells transduced with retroviruses encoding human RED and/or P450 2B6 under normoxic culture conditions. Cells were seeded at 4000 cells/well in 48-well plates and treated with increasing concentrations of TPZ for 4 days. Cell growth in comparison to drug-free controls was determined by crystal violet staining and is presented as mean±SD for n=3 replicates.
FIG. 22 is a graph depicting the cytotoxicity of increasing concentrations of TPZ under hypoxic conditions (1% O2) toward 9L tumor cells transduced with retroviruses encoding P450 2B6 and/or human RED. 9L/pBabe cells served as controls. Cells were seeded at 4000 cells/well in 48-well plates and treated with increasing concentrations of TPZ for 4 days. Cell growth in comparison to drug-free controls was determined by crystal violet staining and is presented as mean±SD for n=3 replicates.
FIGS. 24A, 24B and 24C are graphs depicting the cytotoxic effects of TPZ (5 or 10 μM, as indicated) in combination with increasing concentrations of CPA under normoxic culture conditions (19.6% O2, 5% CO2). The data shown were obtained using 9L/2B6/hRED cells (FIG. 24A), 9L/hRED cells (FIG. 24B) and 9L/pBabe (control) cells (FIG. 24C). Data were compared to the cytotoxicity of increasing concentrations of CPA alone (i. e., in the absence of TPZ) measured using the same pools of tumor cells. Cells were seeded at 4000 cells/well in 48-well plates and then treated with the indicated drug concentrations for 4 days. Cell growth in comparison to drug-free controls (i.e., in the absence of CPA and TPZ) was determined by crystal violet staining and is presented as mean±SD for n=3 replicates.
FIGS. 25A, 25B and 25C are graphs depicting the cytotoxic effects of TPZ (0.5 or 1.5 μM, as indicated) in combination with increasing concentrations of CPA under hypoxic culture conditions (1% O2, 5% CO2). The data shown were obtained using 9L/2B6/hRED cells (FIG. 25A), 9L/hRED cells (FIG. 25B) and 9L/pBabe (control) cells (FIG. 25C). Data were compared to the cytotoxicity of increasing concentrations of CPA alone (i.e., in the absence of TPZ) measured using the same pools of tumor cells. Cells were seeded at 4000 cells/well in 48-well plates and then treated with the indicated drug concentrations for 4 days. Cell growth in comparison to drug-free controls (i.e., in the absence of CPA and TPZ) was determined by crystal violet staining and is presented as mean±SD for n=3 replicates.
Cytotoxicity assays: To evaluate the chemosensitivity of the P450- and P450/RED-expressing 9L tumor cells, cells were plated in triplicate at 4000 cells/well of a 48-well plate 18-24 hours prior to drug treatment. Cells were then treated with drugs (0 to 1 mM CPA or 0 to 50 μM TPZ, as indicated in each experiment) and placed in a tissue culture incubator maintained under hypoxic conditions (1% O2, 5% CO2, 94% N2) or under normoxic conditions (19.6% O2, 5% CO2, 75.4% N2) for a period of 4 days. 9L/pBabe cells, which were transduced with the empty retroviral plasmid pBabe-puro (see, Example 2), served as controls. Cells remaining after this time were quantitated using a crystal violet/alcohol-extraction assay, as described under Example 2. Data are presented as cell number relative to drug-free controls, mean±SD values for triplicate samples, unless indicated otherwise.

[8] = tested on: P450 2C9; conditions: cited from earlier work
[9] = tested on: CYP2C9; conditions: subset of cancer patients; cited from earlier work
[10] = tested on: human cytochrome P450s; conditions: cited from earlier work
[11] = tested on: 9L/wt cells; test: Intrinsic chemosensitivity of 9L/wt cells to chemically activated CPA and IFA; format: cell-based, rat
Description: 9L/wt cells seeded at 2000 cells/ well in 48-well plates were treated for 3-4 hours with increasing concentrations of 4-hydroperoxy-CPA or 4-hydroxyperoxy-IFA (0 to 100 μM). Cells were then incubated in fresh drug-free media and allowed to grow for 4 days. Cell growth as a percent of drug-free controls was then determined by crystal violet staining. Data shown are mean±range for duplicate samples.
Briefly, culture dishes were washed once with phosphate buffered saline (PBS), stained for 10 minutes with crystal violet (1.25 g crystal violet (Sigma) dissolved in 500 ml containing 50 ml of 37% formaldehyde and 450 ml methanol), and then washed with PBS, twice for 20 minutes per wash. Absorbance values were measured in an SLT Spectra microtiter plate reader using a 595 nm filter. Background absorbance determined from wells containing culture media alone was subtracted from each value.

[12] = tested on: 9L tumor cells; test: Control experiment: effect of semicarbazide on cell viability; format: cell-based, rat; conditions: 5 mM, up to 48 hours

With `c1ccc2c(c1)[I+]c1ccccc1-2` [DPI, diphenyleneiodonium chloride] the “increase of cell survival ratio in CYP2B1+ RED+++ cells” value [1] was 3-5 fold, the “rescue of CYP2B1+ and CYP2B1+ RED+++ cells from CPA toxicity” value [1] was “partially rescued” and the inhibition at 5 µM ([1]; Rattus norvegicus, read-out: growth inhibition in absence of CPA) was about 20%.

For `COc1cccc2c1C(=O)c1c(O)c3c(c(O)c1C2=O)C[C@@](O)(C(=O)CO)C[C@@H]3O[C@H]1C[C@H](N)[C@H](O)[C@H](C)O1` [Adriamycin, doxorubicin], the “toxicity to 9L and 9L/lacZ cells without P450 metabolism” value ([2]; 100 nM, 2 days) was “toxic to 9L cells”, the “effect of co-expression of RED with P450 2B1 on Adriamycin cytotoxicity” value ([2]; PR11 and PR7) was “large enhancement in Adriamycin cytotoxicity; also recorded: Enhanced cytotoxicity” and the “chemosensitization to Adriamycin in line PR1” value ([2]; RED overexpression approximately 2-fold) was “more modest chemosensitization”. The “effect of RED overexpression alone on Adriamycin cytotoxicity” value ([2]; line R26) was “did not enhance the cytotoxicity”.

For `O=P1(NCCCl)OCCCN1CCCl` (stereo not shown) [IFA, ifosfamide], the “side effects of systemic distribution of drug and alkylating metabolites” value [3] is listed as “cardiotoxicity, renal toxicity, marrow suppression, and neurotoxoxicity”, the cytotoxicity at 670 µM ([4]; cell ratio 6:1, read-out: maximum bystander cytotoxicity) is listed as about 50% and the cytotoxicity at 670 µM ([4]; cell ratios up to 3:1, read-out: bystander cytotoxicity) is listed as at most 25%.

With `CC(C)(C(=O)c1cccnc1)c1cccnc1` [metyrapone] the “blocking of CPA cytotoxicity toward CYP2B1+ cells” value ([1]; 10 μM and higher, P3 and P17, FIG. 3) was “significantly blocked the cytotoxic effects”, the “inhibition of CPA cytotoxicity in RED-overexpressing CYP2B1+ cells” value ([1]; 10 μM, FIG. 3) was “only slightly inhibited the cytotoxic effect” and the “blocking of CPA cytotoxicity toward CYP2B1+ cells” value ([5]; 10 μM and higher, P3 and P17) was “significantly blocked the cytotoxic effects”. The “inhibition of CPA cytotoxicity in RED-overexpressing CYP2B1+ cells” value ([5]; 10 μM) was “only slightly inhibited the cytotoxic effect”.

In the case of `Nc1n[n+]([O-])c2ccccc2[n+]1[O-]` [TPZ, 3-amino-1,2,4-benzotriazine-1,4-di-N-oxide], the “effect of TPZ on activity of CPA and other cancer chemotherapeutics” value ([6]; in vivo) is given as “enhance the activity of CPA”, the “bone marrow toxicity with TPZ combination” value ([6]; with CPA and other chemotherapeutics) is given as “corresponding increase in bone marrow toxicity” and the “effect of P450 2B6 and RED on TPZ cytotoxicity” value [7] is given as “substantial increase in cytotoxicity”. The “effect of P450 2B6 expression alone on TPZ cytotoxicity” value [7] was “no effect on the cytotoxicity”, the “effect of P450 2B6 on TPZ cytotoxicity” value [7] was “Some enhanced cytotoxicity” and the “effect of RED gene transfer on TPZ sensitivity” value [7] was “chemosensitized 9L tumor cells”. The “effect of RED gene transfer, with or without P450 2B6, on TPZ cytotoxicity” value [7] was “increase in TPZ cytotoxicity” and the “intrinsic cytotoxicity under hypoxic vs normoxic conditions” value [7] was “intrinsically more cytotoxic”.

With `Nc1ccc[n+]([C@@H]2O[C@H](COP(=O)([O-])OP(=O)(O)OC[C@H]3O[C@@H](n4cnc5c(N)ncnc54)[C@H](O)[C@@H]3O)[C@@H](O)[C@H]2O)c1` [AADP, 3-aminopyridine adenine dinucleotide] the “toxicity to the cells in absence of CPA” value ([1]; 0.5 mM) was “no toxicity to the cells”, the “increase of cell survival ratio in CYP2B1+ RED+++ cells” value [1] was 2-3 fold and the “rescue of CYP2B1+ and CYP2B1+ RED+++ cells from CPA toxicity” value [1] was “partially rescued”.

For `Nc1ccc(S(=O)(=O)Nc2ccnn2-c2ccccc2)cc1` [sulfaphenazole], the “inhibition of P450 2C9-catalyzed human liver CPA activation” value [8] is listed as “inhibits P450 2C9-catalyzed human liver CPA activation” and the “effect on elimination of CPA” value [9] is listed as “slows the elimination of CPA”.

For `Clc1cnc(Oc2ccc(Oc3ncc(Cl)cc3Cl)cc2)c(Cl)c1` [TCPOBOP, 1,4-bis-2-(3,5-dichloropyridyloxybenzene)], the “induction of human cytochrome P450s in colon and breast tumors” value [10] is given as “profound inducer”.

For `O=P1(N(CCCl)CCCl)NC(OO)CCO1` (stereo not shown) [4-hydroperoxy-CPA], the “sensitivity of 9L cells to activated CPA compared to activated IFA” value ([11]; 0 to 100 μM, 3-4 h, 4 days regrowth) was “approximately 3 fold” and the “intrinsic sensitivity of 9L cells to activated CPA compared to activated IFA” value ([11]; FIG. 16) was “greater intrinsic sensitivity”.

In the case of `NNC(N)=O` [semicarbazide], the “effect on cell viability” value [12] is reported as “no detectable effect on cell viability”.
